This is an account of results in ChEMBL document CHEMBL3112517, “Identification of dihydrostilbenes in Pholidota chinensis as a new scaffold for GABAA receptor modulators” (Bioorg Med Chem, 2014).

Active and inactive are the calls of the source. The calls are words filed in the database; no cut-off is given here.

The target of experiment [1] is GABA A receptor alpha-2/beta-2/gamma-2 (Homo sapiens) (UniProt P47870+P18507+P47869). Briefly: Modulation of GABAA alpha2beta2gamma2S receptor (unknown origin) expressed in Xenopus laevis oocytes assessed as potentiation of EC3 to 10 GABA-induced chloride ion current at holding potential -70 mV at 1 to 300 uM by two-microelectrode voltage clamp assay relative to GABA-treated control. It is filed as cell-based.

Experiment [2] can be described thus: Modulation of GABAA alpha1beta1gamma2S receptor (unknown origin) expressed in Xenopus laevis oocytes assessed as potentiation of EC3 to 10 GABA-induced chloride ion current at holding potential -70 mV by two-microelectrode voltage clamp assay. It counts as cell-based. Conditions: Homo sapiens.
Experiment [3] deals with GABA A receptor alpha-3/beta-2/gamma-2 (Homo sapiens) (UniProt P47870+P18507+P34903). Briefly: Modulation of GABAA alpha3beta2gamma2S receptor (unknown origin) expressed in Xenopus laevis oocytes assessed as potentiation of EC3 to 10 GABA-induced chloride ion current at holding potential -70 mV at 1 to 300 uM by two-microelectrode voltage clamp assay relative to GABA-treated control. It counts as cell-based.

The nature of experiment [4]: Potency index, ratio of compound activity for modulation of rat GABAA alpha1beta2gamma2S receptor assessed as EC3 to 10 GABA-induced chloride ion current to triazolam activity for modulation of GABAA alpha1beta2gamma2S receptor (unknown origin) assessed as potentiation of EC5 to 10 GABA-induced chloride ion current.
Experiment [5] is filed under the species Homo sapiens. Briefly: Modulation of GABAA alpha4beta2gamma2S receptor (unknown origin) expressed in Xenopus laevis oocytes assessed as potentiation of EC3 to 10 GABA-induced chloride ion current at holding potential -70 mV at 1 to 300 uM by two-microelectrode voltage clamp assay relative to GABA-treated control. It is filed as cell-based.
The target in experiment [6] is GABA-A receptor; alpha-1/beta-3/gamma-2 (Homo sapiens) (UniProt P14867+P18507+P28472). Briefly: Modulation of GABAA alpha1beta3gamma2S receptor (unknown origin) expressed in Xenopus laevis oocytes assessed as potentiation of EC3 to 10 GABA-induced chloride ion current at holding potential -70 mV 1 to 300 uM by two-microelectrode voltage clamp assay relative to GABA-treated control. It is filed as cell-based.

Experiment [7] is described as follows: Modulation of GABAA alpha4beta2gamma2S receptor (unknown origin) expressed in Xenopus laevis oocytes assessed as potentiation of EC3 to 10 GABA-induced chloride ion current at holding potential -70 mV by two-microelectrode voltage clamp assay. It counts as cell-based. The following applies: Homo sapiens.
For experiment [8], the target named is T1, GABA-A receptor; alpha-1/beta-3/gamma-2 (Homo sapiens, UniProt P14867+P18507+P28472).
T1 sequence (P14867 whole entry): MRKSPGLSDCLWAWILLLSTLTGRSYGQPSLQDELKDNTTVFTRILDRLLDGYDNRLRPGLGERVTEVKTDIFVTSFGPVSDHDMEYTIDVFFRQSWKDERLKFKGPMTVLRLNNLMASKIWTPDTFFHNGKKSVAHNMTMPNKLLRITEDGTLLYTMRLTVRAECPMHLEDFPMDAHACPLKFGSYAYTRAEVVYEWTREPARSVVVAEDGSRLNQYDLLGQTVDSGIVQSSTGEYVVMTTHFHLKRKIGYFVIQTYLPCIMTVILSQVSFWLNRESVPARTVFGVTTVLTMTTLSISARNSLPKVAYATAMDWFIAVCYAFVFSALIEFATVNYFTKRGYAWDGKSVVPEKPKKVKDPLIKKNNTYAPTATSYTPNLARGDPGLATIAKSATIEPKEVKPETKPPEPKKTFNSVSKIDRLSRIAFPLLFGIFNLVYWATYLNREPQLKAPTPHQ
T1 sequence (P18507 whole entry): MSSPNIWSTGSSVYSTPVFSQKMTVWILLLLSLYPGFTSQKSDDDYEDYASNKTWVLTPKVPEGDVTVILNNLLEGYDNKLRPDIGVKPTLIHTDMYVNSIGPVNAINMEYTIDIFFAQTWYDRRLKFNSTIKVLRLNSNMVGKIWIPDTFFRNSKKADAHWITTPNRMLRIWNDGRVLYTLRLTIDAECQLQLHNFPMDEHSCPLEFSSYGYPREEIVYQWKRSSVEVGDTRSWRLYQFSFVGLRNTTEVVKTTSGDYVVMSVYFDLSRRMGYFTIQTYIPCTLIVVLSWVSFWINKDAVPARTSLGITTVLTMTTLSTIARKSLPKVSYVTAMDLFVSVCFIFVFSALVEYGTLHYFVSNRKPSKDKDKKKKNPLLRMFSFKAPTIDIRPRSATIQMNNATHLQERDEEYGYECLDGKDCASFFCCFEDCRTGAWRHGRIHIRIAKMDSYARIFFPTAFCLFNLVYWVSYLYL
T1 sequence (P28472 whole entry): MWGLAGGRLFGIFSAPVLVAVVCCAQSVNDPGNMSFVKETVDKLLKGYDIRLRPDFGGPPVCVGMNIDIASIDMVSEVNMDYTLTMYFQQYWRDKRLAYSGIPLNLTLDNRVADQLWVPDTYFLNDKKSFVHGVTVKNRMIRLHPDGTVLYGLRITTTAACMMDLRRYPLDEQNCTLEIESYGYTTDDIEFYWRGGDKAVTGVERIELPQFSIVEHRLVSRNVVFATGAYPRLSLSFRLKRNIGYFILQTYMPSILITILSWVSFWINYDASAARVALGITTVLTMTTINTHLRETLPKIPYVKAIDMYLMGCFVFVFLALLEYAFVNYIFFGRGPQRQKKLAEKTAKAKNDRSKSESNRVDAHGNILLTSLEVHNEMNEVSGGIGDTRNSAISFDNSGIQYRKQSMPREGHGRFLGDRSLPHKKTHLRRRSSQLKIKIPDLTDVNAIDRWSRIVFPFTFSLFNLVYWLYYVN
Briefly: Modulation of GABAA alpha1beta3gamma2S receptor (unknown origin) expressed in Xenopus laevis oocytes assessed as potentiation of EC3 to 10 GABA-induced chloride ion current at holding potential -70 mV by two-microelectrode voltage clamp assay. It is filed as cell-based.

For another experiment, the species on record is Rattus norvegicus. Briefly: Agonist activity rat GABAA alpha1beta2gamma2S receptor expressed in Xenopus laevis oocytes assessed as potentiation of GABA-induced chloride ion current at holding potential -70 mV at <100 uM compound treated prior to GABA challenge by two-microelectrode voltage clamp assay. It is filed as cell-based.
Experiment [9] can be described thus: Potency index, ratio of compound activity for modulation of rat GABAA alpha1beta2gamma2S receptor assessed as EC3 to 10 GABA-induced chloride ion current to clotiazepam activity for modulation of GABAA alpha1beta2gamma2S receptor (unknown origin) assessed as potentiation of EC5 to 10 GABA-induced chloride ion current.
For experiment [10], the species on record is Homo sapiens. Briefly: Modulation of GABAA alpha1beta1gamma2S receptor (unknown origin) expressed in Xenopus laevis oocytes assessed as potentiation of EC3 to 10 GABA-induced chloride ion current at holding potential -70 mV at 1 to 300 uM by two-microelectrode voltage clamp assay relative to GABA-treated control. It counts as cell-based.

A word on the EC50: it is the concentration that produces a half-maximal response. `COc1cc(O)cc(CCc2cccc(O)c2)c1` [BATATASIN III]: the Imax was 1030% in experiment [1]; 1690% in experiment [3]; 1590% in the experiment filed under Homo sapiens [5]; 1250% in experiment [6]; 1250% in the experiment filed under Homo sapiens [10]. The values for the EC50 in [2], in experiment [7] and in experiment [8] were 66.7 µM, 26.2 µM and 67.2 µM, respectively. Moreover, the Ratio in experiment [4] and in experiment [9] was 4 throughout. For the same compound, in the experiment listed under Rattus norvegicus, the result was inactive.
